Laboratory results: ChEMBL document CHEMBL1201862, “PubChem BioAssay data set” (2004)
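All cell lines were grown in 96-well plates and treated with compound for 48 hours. GI50 is the concentration that inhibits growth by half.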 Active and inactive are the calls of the source. No stated cut-off is given here; in the data, active = GI50 up to about 1.1 µM and inactive = higher. Positions of bridges follow the written chain, without caps; N, C: chain ends. Non-standard residues stand in square brackets, D forms with d. Residues, ends and D or L forms follow the SMILES beside them. ξ: configuration not given here. *: point of attachment. X28 = O=C(/C=C/C=C/C=C/C=C/C=C/C(=O)*)NC1=C(O)CCC1=O; Pro(4R-Me) = C[C@H]1CN[C@H](C(=O)O)C1; NMeA = CN[C@@H](C)C(=O)O; ξF = NC(Cc1ccccc1)C(=O)O; ξA = CC(N)C(=O)O

Key:
Experiment in all cases: inhibition of tumour cell growth, NCI panel, 48 h
A498 = system: A498
BT-549 = system: BT-549
DU-145 = system: DU-145
HCT-116 = system: HCT-116
HL-60 = system: HL-60
HOP-62 = system: HOP-62
HOP-92 = system: HOP-92
KM12 = system: KM12
LOX IMVI = system: LOX IMVI
MCF7 = system: MCF7
MDA-N = system: MDA-N
PC-3 = system: PC-3
SF-295 = system: SF-295
SK-MEL-28 = system: SK-MEL-28
SK-MEL-2 = system: SK-MEL-2
SK-MEL-5 = system: SK-MEL-5
SN12C = system: SN12C
SNB-75 = system: SNB-75
UACC-62 = system: UACC-62
UO-31 = system: UO-31

Measured: GI50

CN(C)CCC(=O)N1C/C(=C/c2ccccc2)C(=O)/C(=C\c2ccccc2)C1
inactive: A498 3.12 µM | DU-145 6.79 µM | HOP-62 7.31 µM | HOP-92 7.11 µM | MDA-N 1.14 µM | PC-3 1.54 µM | SF-295 2.93 µM | SK-MEL-28 1.58 µM | SK-MEL-2 2.95 µM | SK-MEL-5 1.45 µM | SN12C 1.25 µM | SNB-75 4.74 µM | UACC-62 1.53 µM | UO-31 2.36 µM
active: BT-549 0.883 µM | HCT-116 0.447 µM | HL-60 0.356 µM | KM12 0.55 µM | LOX IMVI 0.436 µM | MCF7 0.349 µM

NC1CCC(c2cc3ccccc3s2)(N2CCCCC2)CC1 (stereo not given)
inactive: A498 9.29 µM | BT-549 1.21 µM | DU-145 4.67 µM | HCT-116 1.69 µM | HL-60 1.85 µM | HOP-62 1.35 µM | KM12 1.73 µM | LOX IMVI 1.51 µM | MCF7 1.68 µM | MDA-N 1.74 µM | PC-3 1.55 µM | SF-295 2.64 µM | SK-MEL-28 1.58 µM | SK-MEL-2 1.55 µM | SK-MEL-5 2.08 µM | SN12C 1.67 µM | SNB-75 10.5 µM | UACC-62 2.47 µM | UO-31 2.31 µM
active: HOP-92 0.489 µM

N=C1C(=N)c2ccccc2-c2ccccc21
active: BT-549 0.914 µM | HCT-116 0.384 µM | HL-60 0.194 µM | LOX IMVI 0.31 µM | MCF7 0.792 µM | MDA-N 0.177 µM | SK-MEL-5 0.308 µM
inactive: A498 2.24 µM | DU-145 1.49 µM | HOP-62 1.67 µM | HOP-92 2.49 µM | KM12 1.85 µM | PC-3 1.52 µM | SF-295 1.62 µM | SK-MEL-28 1.35 µM | SK-MEL-2 1.55 µM | SN12C 1.19 µM | SNB-75 1.82 µM | UACC-62 1.39 µM | UO-31 1.61 µM

N#CC(c1ccccc1)N(CCc1ccccc1)C(=O)Oc1ccccc1 (stereo not given)
inactive: A498 > 100 µM | BT-549 > 100 µM | DU-145 > 100 µM | HCT-116 > 100 µM | HL-60 > 100 µM | HOP-62 82 µM | HOP-92 29.5 µM | KM12 > 100 µM | LOX IMVI > 100 µM | MCF7 > 100 µM | MDA-N > 100 µM | PC-3 > 100 µM | SF-295 > 100 µM | SK-MEL-28 > 100 µM | SK-MEL-2 > 100 µM | SK-MEL-5 > 100 µM | SN12C > 100 µM | SNB-75 25.6 µM | UACC-62 > 100 µM | UO-31 > 100 µM

COC1=C(Cl)C(=O)c2c(O)ccc(O)c2C1=O
active: A498 0.794 µM | HCT-116 0.536 µM | HL-60 0.0393 µM | HOP-62 0.873 µM | MCF7 1.04 µM | SK-MEL-2 0.499 µM | UACC-62 1.07 µM
inactive: BT-549 1.82 µM | DU-145 2.38 µM | HOP-92 1.78 µM | KM12 6.17 µM | LOX IMVI 1.38 µM | MDA-N 2.2 µM | PC-3 3.07 µM | SF-295 6.43 µM | SK-MEL-28 2.58 µM | SK-MEL-5 1.4 µM | SN12C 1.31 µM | SNB-75 4.88 µM | UO-31 1.77 µM

C=CCOc1ccc(C(=N/NC(=O)c2ccccc2)/N=N/c2ccc([N+](=O)[O-])cc2)cc1OC
inactive: A498 > 100 µM | BT-549 > 100 µM | DU-145 77.4 µM | HCT-116 58.6 µM | HL-60 93.3 µM | HOP-62 > 100 µM | HOP-92 18.6 µM | KM12 > 100 µM | LOX IMVI 82.6 µM | MCF7 > 100 µM | MDA-N > 100 µM | PC-3 > 100 µM | SF-295 > 100 µM | SK-MEL-28 > 100 µM | SK-MEL-2 > 100 µM | SK-MEL-5 76.6 µM | SN12C > 100 µM | SNB-75 > 100 µM | UACC-62 > 100 µM | UO-31 > 100 µM

COC(=O)c1ccccc1C1CN=NC12Cc1ccc(C)c(C)c1C2=O (stereo not given)
inactive: A498 > 100 µM | BT-549 > 100 µM | DU-145 > 100 µM | HCT-116 29.6 µM | HL-60 16.3 µM | HOP-62 > 100 µM | HOP-92 28.2 µM | KM12 29.2 µM | LOX IMVI 14.6 µM | MCF7 35.6 µM | MDA-N 77.4 µM | PC-3 50.8 µM | SF-295 46.5 µM | SK-MEL-28 > 100 µM | SK-MEL-2 > 100 µM | SK-MEL-5 21.6 µM | SN12C > 100 µM | SNB-75 61.2 µM | UACC-62 74 µM | UO-31 93.8 µM

CN(C)[C@@H]1C(O)=C(C(=O)NCNc2nc3[nH]nnc3c(=O)[nH]2)C(=O)[C@@]2(O)C(O)=C3C(=O)c4c(O)cccc4[C@@](C)(O)[C@H]3C[C@@H]12
inactive: A498 92 µM | BT-549 6.7 µM | DU-145 1.27 µM | HCT-116 1.21 µM | HOP-92 1.3 µM | KM12 49.8 µM | MCF7 66.1 µM | PC-3 3.42 µM | SF-295 4.47 µM | SK-MEL-28 1.33 µM | SK-MEL-5 1.9 µM | SNB-75 11.2 µM
active: HL-60 0.231 µM | HOP-62 0.518 µM | LOX IMVI 0.679 µM | MDA-N 0.393 µM | SK-MEL-2 0.139 µM | SN12C 0.743 µM | UACC-62 0.346 µM | UO-31 0.358 µM

CC1(C)CC[C@]2(C(=O)O)CC[C@]3(C)C(=CC[C@@H]4[C@@]5(C)CC[C@H](OC6OC(CO)C(O)C(O)C6O)C(C)(C)[C@@H]5CC[C@]43C)[C@@H]2C1 (stereo not given in full)
inactive: A498 2.1 µM | BT-549 1.31 µM | DU-145 1.98 µM | HCT-116 1.69 µM | HL-60 2 µM | HOP-62 1.72 µM | HOP-92 1.68 µM | KM12 1.52 µM | LOX IMVI 1.66 µM | MCF7 2.37 µM | MDA-N 1.86 µM | PC-3 1.6 µM | SF-295 1.78 µM | SK-MEL-28 1.99 µM | SK-MEL-2 1.71 µM | SK-MEL-5 1.93 µM | SN12C 1.7 µM | SNB-75 2.12 µM | UACC-62 1.82 µM | UO-31 1.71 µM

O=C(O)CCC(=O)c1ccc2ccc3cccc4ccc1c2c34
inactive: A498 67.5 µM | BT-549 63.2 µM | DU-145 > 100 µM | HCT-116 65.8 µM | HL-60 23 µM | HOP-62 84.5 µM | HOP-92 > 100 µM | KM12 55.2 µM | LOX IMVI 71.8 µM | MCF7 54.3 µM | MDA-N > 100 µM | PC-3 67.9 µM | SF-295 70.6 µM | SK-MEL-28 87.3 µM | SK-MEL-2 > 100 µM | SK-MEL-5 58.6 µM | SN12C 57 µM | SNB-75 > 100 µM | UACC-62 > 100 µM | UO-31 94.6 µM

CC1NC(=O)[C@H](C)N(C)C(=O)[C@@H]2CCCN2C(=O)[C@@H](NC(=O)C(Cc2ccccc2)NC(=O)/C=C/C=C/C=C/C=C/C=C/C(=O)NC2=C(O)CCC2=O)COC(=O)[C@@H]2C[C@@H](C)CN2C1=O (stereo partly drawn) (X28-[ξF]SP[NMeA][ξA][Pro(4R-Me)]; ester 2-C)
inactive: A498 > 100 µM | BT-549 > 100 µM | DU-145 > 100 µM | HCT-116 > 100 µM | HL-60 > 100 µM | HOP-62 > 100 µM | HOP-92 > 100 µM | KM12 > 100 µM | LOX IMVI > 100 µM | MCF7 > 100 µM | MDA-N > 100 µM | PC-3 > 100 µM | SF-295 > 100 µM | SK-MEL-28 > 100 µM | SK-MEL-2 > 100 µM | SK-MEL-5 > 100 µM | SN12C > 100 µM | SNB-75 > 100 µM | UACC-62 > 100 µM | UO-31 > 100 µM

O=C(NCP(=O)(O)O)c1cccnc1 [(NICOTINAMIDOMETHYL)PHOSPHONIC ACID]
inactive: A498 > 100 µM | BT-549 > 100 µM | DU-145 > 100 µM | HCT-116 > 100 µM | HL-60 > 100 µM | HOP-62 > 100 µM | HOP-92 > 100 µM | KM12 > 100 µM | LOX IMVI > 100 µM | MCF7 > 100 µM | MDA-N > 100 µM | PC-3 > 100 µM | SF-295 > 100 µM | SK-MEL-28 > 100 µM | SK-MEL-2 > 100 µM | SK-MEL-5 > 100 µM | SN12C > 100 µM | SNB-75 92.3 µM | UACC-62 > 100 µM | UO-31 > 100 µM
